Source: patent EP2527323A1, “Urea carbonyl disulfide derivatives and their therapeutic uses” (NOSCIRA, S.A., priority 2011, dated 2012)
Each block holds one compound with its values, some of them ahead of it.

What was measured:
human recombinant GSK3β = molecular target: T1, human recombinant GSK3β (Homo sapiens, UniProt P49841); test: GSK-3β assay (Z'-LYTE FRET enzymatic activity); format: biochemical; conditions: 2 nM enzyme (N-terminal 6His-tagged, H350L mutation), 12.5 µM ATP, 2 µM Ser/Thr 9 peptide, 60 min at room temperature, 1% DMSO; read-out: GSK3β inhibition average EC50
T1 construct: 6His (N); purchased Millipore (Billerica, MA, USA)
T1 sequence (P49841 whole entry): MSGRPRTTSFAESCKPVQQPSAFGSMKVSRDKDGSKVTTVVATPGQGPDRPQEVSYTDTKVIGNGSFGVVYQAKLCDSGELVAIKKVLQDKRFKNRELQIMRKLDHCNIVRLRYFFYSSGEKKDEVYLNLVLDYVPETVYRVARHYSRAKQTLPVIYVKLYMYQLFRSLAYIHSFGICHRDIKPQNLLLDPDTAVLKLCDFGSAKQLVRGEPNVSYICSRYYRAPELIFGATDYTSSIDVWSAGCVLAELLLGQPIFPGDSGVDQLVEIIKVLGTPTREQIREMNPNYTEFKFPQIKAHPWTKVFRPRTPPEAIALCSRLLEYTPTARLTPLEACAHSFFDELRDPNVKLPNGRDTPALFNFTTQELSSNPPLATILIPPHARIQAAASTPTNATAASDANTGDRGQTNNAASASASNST
Procedure: The enzymatic activity of GSK3β was determined with a commercial system based on the Z'-LYTE® technology, available from Invitrogen Life Technologies (Carlsbad, CA, USA), using human recombinant GSK3β (N-terminal 6His-tagged recombinant enzyme with an H350L mutation) from Millipore (Billerica, MA, USA) as the enzyme source. This technology utilizes the fluorescence resonance energy transfer ("FRET") process between fluorescein and coumarin. The assay principle is based on the differential sensitivity of phosphorylated and non-phosphorylated peptide to proteolytic cleavage, which precludes the energy transfer process between the two fluorophores attached to both sides of the cleavage site. […] The latter is a synthetic peptide, provided by Invitrogen under the commercial name "Ser/Thr 9 peptide", and it is based upon the sequence of a GSK3β substrate protein (glycogen synthase I) containing Ser-641. The peptide is labeled at both ends with fluorescein and coumarin. The assay is carried out in the presence of different concentrations of the tested compound, at a final 1% (v/v) DMSO concentration. After a 60 min incubation at room temperature, 5 µl of a commercial protease solution (sold by the same vendor in the assay kit) is added and a subsequent 1h incubation at room temperature is performed, before adding 5 µl of a suitable "stop solution", also provided by the vendor in the kit. After that, fluorescence intensity is recorded, monitoring emission at both 445 and 520 nm, upon excitation at 400 nm. An emission ratio is finally calculated, using the quotient among the emission at 445 nm divided by that at 520 nm.
The emission ratio of each tested sample is normalized to that of the control wells, so that for every compound concentration the percentage of inhibition is calculated by using the following equation: % Inhibition = 100⋅(E-S)/(E-B) [formula] wherein "S" is the emission ratio of the sample being considered, "E" is the average emission ratio of wells, including enzyme in the absence of inhibitors, and "B" is the average emission ratio of wells without enzyme. The inhibition values obtained at every compound concentration are finally used to calculate the EC50 of the tested compound, this parameter being the concentration of the compound which causes 50% of inhibition. For that purpose, the data were fitted to a classical 4-parameters isotherm equation using the nonlinear regression function of GraphPad™ Prism 5.0 (GraphPad Software Inc.). Such equation is described below: % Inhibition = L + (H-L)/(1 + (((EC50)/(C)))^n) [formula] wherein "L" is the lower asymptote of the theoretical sigmoidal curve, "H" is the higher asymptote, "C" is the concentration of compound and "n" is the Hill coefficient.

[1] = tested on: Ser-396 residue of Tau protein in human neuroblastoma SH-SY5Y cells; test: Cellular assay: phosphorylation at Ser-396 of Tau protein (ELISA); format: cell-based; conditions: 18 h incubation at 37°C, 1% DMSO, normalized to untreated cells, read-out: pS*er396-Tau average EC50
Procedure: The effect of the compound in cells is determined by monitoring the level of phosphorylation at the Ser-396 residue of Tau protein in human neuroblastoma SH-SY5Y cells. Cells are grown in 96-well plates: 30,000 cells per well in a volume of 100 µl of 1:1 MEM:Ham's F12 medium including 10% (v/v) fetal bovine serum, 100 U/ml penicillin, 100 µg/ml streptomycin and 1% (v/v) 100-fold concentrated commercial stock of non-essential aminoacids (Gibco, Carlsbad, CA, USA), and incubated at 37°C during 24 h. Then, the corresponding amount of test compound is added to the wells to reach the desired concentration in 1% (v/v) DMSO. The system is incubated at 37°C during 18 h and afterwards cells are harvested, washed with phosphate buffer saline and incubated during 30 min on ice with 120 µl per well of "lysis buffer" (10 mM Tris-HCl pH 7.4, 100 mM NaCl, 1 mM EDTA, 2 mM sodium orthovanadate, 1% (v/v) Triton X-100, 10% (v/v) glycerol, 0.1% (w/v) sodium dodecyl sulfate, 0.5 % (w/v) sodium deoxycholate, 4% (v/v) 25-fold concentrated commercial stock of protease inhibitors (Roche, Basel, Switzerland) and 1 mM phenylmethylsulfonyl fluoride). 60 µl of this mixture is then placed in an empty 96-well plate and the levels of Ser-396 phosphorylation are determined using a commercial ELISA kit (Biosource, Carlsbad, CA, USA), following manufacturer's instructions. The levels of phosphorylation are expressed as percentage values, after normalizing them to those in untreated cells and those values are used to calculate EC50s, as described above for GSK-3.

EC50 (human recombinant GSK3β): 0.082 µM
SMILES: O=C(Nc1ccc2c(c1)OCO2)N(Cc1ccccc1)C(=O)SSC1CCCC1 [Compound 7, 3-Benzo[1,3]dioxol-5-yl-1-benzyl-1-(1-propion-2,3-dithia-3-cyclopentyl-1-yl)-urea]

EC50 (human recombinant GSK3β): 0.097 µM
SMILES: CCOC(=O)CNC(=O)N(CC(=O)OCC)C(=O)SSCCc1ccccc1 [Compound 8, [3-Ethoxycarbonylmethyl-3-(pentan-2,3-dithia-5-phenyl-1-yl)-ureido]-acetic acid ethyl ester]

EC50 (human recombinant GSK3β): 0.035 µM
SMILES: CC(C)C(C)SSC(=O)N(Cc1ccccc1)C(=O)Nc1ccc(Oc2ccccc2)cc1 (centres unmarked) [Compound 9, 1-Benzyl-1-(hexan-2,5-dithia-4,5-dimethyl-1-yl)-3-(4-phenoxy-phenyl)-urea]

EC50 (human recombinant GSK3β): 0.295 µM
SMILES: CCCCCSSC(=O)N(Cc1ccccc1)C(=O)NCc1ccccc1 [Compound 10, 1,3-Dibenzyl-1-(octan-2,3-dithia-1-oyl)-urea]
EC50 [1]: 7.08 µM

EC50 (human recombinant GSK3β): 0.104 µM
SMILES: COC(=O)C(CSSC(=O)N(Cc1ccccc1)C(=O)Nc1cccc2ccccc12)NC(C)=O (centres unmarked) [Compound 11, 2-Acetylamino-6-(1-benzyl-3-naphthalen-1-yl-ureido)-4-5-dithia-6-oxo-hexanoic acid methyl ester]

EC50 (human recombinant GSK3β): 1.66 µM
SMILES: O=C(Nc1cccc2ccccc12)N(Cc1ccccc1)C(=O)SS [Compound 15, Benzyl-(N-Naphthalen-1-yl-formamide)-carbamoyl sodium dithioperoxol]

Continued, compound first:

SMILES: C=CCSSC(=O)N(Cc1ccccc1)C(=O)Nc1cccc2ccccc12 [Compound 1, 1-Benzyl-1-hex-2,3-dithia-5-enoyl-3-naphthalen-1-yl-urea]
EC50 (human recombinant GSK3β): 0.708 µM

SMILES: CCCCSSC(=O)N(Cc1ccccc1)C(=O)Nc1cccc2ccccc12 [Compound 2, 1-Benzyl-1-heptan-2,3-dithia-1-oyl-3-naphthalen-1-yl-urea]
EC50 (human recombinant GSK3β): 0.066 µM

SMILES: CC(C)C(C)SSC(=O)N(Cc1ccccc1)C(=O)Nc1cccc2ccccc12 (centres unmarked) [Compound 3, 1-Benzyl-1-(4,5 dimethy-hexan-2,3-dithia-1-oyl)-3-naphthalen-1-yl-urea]
EC50 (human recombinant GSK3β): 0.161 µM

SMILES: O=C(Nc1cccc2ccccc12)N(Cc1ccccc1)C(=O)SSCCc1ccccc1 [Compound 4, 1-Benzyl-1-(5-phenyl-pentan-2,3-dithia-1-oyl)-3-naphthalen-1-yl-urea]
EC50 (human recombinant GSK3β): 0.058 µM
EC50 [1]: 6.61 µM

SMILES: O=C(Nc1cccc2ccccc12)N(Cc1ccccc1)C(=O)SSC1CCCC1 [Compound 5, 1-Benzyl-1-(3-cyclopentyl-propion-2,3-dithia-1-oyl)-3-naphthalen-1-yl-urea]
EC50 (human recombinant GSK3β): 0.125 µM

SMILES: O=C(Nc1cccc2ccccc12)N(Cc1ccccc1)C(=O)SSCc1ccccc1 [Compound 6, 1-Benzyl-3-naphthalen-1-yl-1-(4-phenyl-butyr-2,3-dithia-1-oyl)-urea]
EC50 (human recombinant GSK3β): 0.229 µM
EC50 [1]: 6.76 µM

SMILES: CCN(CC)C(=O)N(C(=O)SSCc1ccccc1)c1cc(F)cc(F)c1 [Compound 12]
EC50 (human recombinant GSK3β): 8.32 µM

SMILES: CCSSC(=O)N(C(=O)N(C)C)c1cccc(C(F)(F)F)c1 [Compound 13]
EC50 (human recombinant GSK3β): 0.339 µM
